Numbers after ± are expanded uncertainties.
Settings: Liquid

Row | SMILES | viscosity (253.15 K) [mPa·s] | viscosity (258.15 K) [mPa·s] | viscosity (263.15 K) [mPa·s] | viscosity (268.15 K) [mPa·s] | viscosity (273.15 K) [mPa·s] | viscosity (278.15 K) [mPa·s] | viscosity (283.15 K) [mPa·s] | viscosity (288.15 K) [mPa·s] | viscosity (293.15 K) [mPa·s] | viscosity (298.15 K) [mPa·s] | viscosity (303.15 K) [mPa·s] | viscosity (308.15 K) [mPa·s] | viscosity (313.15 K) [mPa·s] | viscosity (318.15 K) [mPa·s] | viscosity (323.15 K) [mPa·s] | viscosity (328.15 K) [mPa·s] | viscosity (333.15 K) [mPa·s] | viscosity (338.15 K) [mPa·s] | viscosity (343.15 K) [mPa·s] | viscosity (348.15 K) [mPa·s] | further results
1 | CCC(C)C [2-methylbutane] | 0.3893 ± 0.0075 | 0.3661 ± 0.0072 | 0.3439 ± 0.0069 | 0.3201 ± 0.0065 | 0.3023 ± 0.0063 | 0.2859 ± 0.0061 | 0.2703 ± 0.0058 | 0.2547 ± 0.0056 | 0.2399 ± 0.0054 | 0.2289 ± 0.0052 | 0.2144 ± 0.005 | 0.2023 ± 0.0049 | 0.191 ± 0.0047 | 0.1813 ± 0.0046 | 0.1724 ± 0.0044 | 0.1611 ± 0.0043 | 0.1543 ± 0.0042 | 0.148 ± 0.0041 | 0.1411 ± 0.004 | 0.1332 ± 0.0039 | viscosity (353.15 K): 0.1287 ± 0.0038 mPa·s
2 | C1CCCC1 [cyclopentane] | 0.7268 ± 0.012 | 0.6786 ± 0.011 | 0.6347 ± 0.011 | 0.593 ± 0.01 | 0.5567 ± 0.0098 | 0.5224 ± 0.0093 | 0.4922 ± 0.0089 | 0.4646 ± 0.0085 | 0.4382 ± 0.0081 | 0.4148 ± 0.0078 | 0.3923 ± 0.0075 | 0.3714 ± 0.0072 | 0.3521 ± 0.0069 | 0.335 ± 0.0067 | 0.319 ± 0.0065 | 0.3048 ± 0.0063 | 0.2912 ± 0.0061 | 0.2793 ± 0.0059 | 0.269 ± 0.0058 | 0.259 ± 0.0056 | viscosity (353.15 K): 0.2502 ± 0.0055 mPa·s

Source: the NIST ThermoML archive (doi:10.1021/je0202174)
